Measurements published in patent US8193333B2, “Cancer therapy using Bcl-Xl-specific siNA” (Centre Regional de Lutte Contre le Cancer-Centre Francois …, priority 2006, dated 2012).

Columns and labels:
[1] = tested on: Bcl-XL protein; assay: Western blot of Bcl-XL protein expression in tumour cell lines after siRNA transfection; format: cell-based, human; settings: SKOV3 cells
Procedure: SKOV3, OAW42, OAW42-R10, IGROV1 and IGROV1-R10 human ovarian adenocarcinoma cell lines, GL15 glioblastoma cell line, and NCI-H28 mesothelioma cell line were obtained from ECACC or ATCC. OAW42, OAW42-R10 cells were grown in DMEM (GIBCO-BRL) supplemented with 10% foetal calf serum (GIBCO-BRL), 2 mM Glutamax™ (GIBCO-BRL), 1 mM sodium pyruvate (GIBCO-BRL), 20 UI/L human recombinant insulin (LILLY), 33 mM sodium bicarbonate and 20 mM HEPES All the other cell lines were grown in RPMI 1640 medium (GIBCO-BRL) supplemented with 10% foetal calf serum (GIBCO-BRL), 2 mM Glutamax™ (GIBCO-BRL), 33 mM sodium bicarbonate and 20 mM HEPES. Cells were maintained at 37° C. in a 5% CO2 humidified atmosphere, and split twice a week by trypsinization.
(§1) Exponentially growing cells were exposed to CDDP for 2 hours at 37° C., in serum free medium. After exposure to the drug, the cell layers were rinsed and incubated in complete growth medium.
(§2) The siRNA duplexes were transfected according to the recommended procedure by using the Oligofectamine Reagent and Opti-MEM medium (INVITROGEN LIFE TECHNOLOGIES). 30-40% confluent cells were transfected in 25 cm^2 flasks with different concentrations of siXL1, siRNA Mcl-1 or siRNA control and incubated at 37° C., 5% CO2 for 4 hours. Next, 20% fetal bovin serum was added to reach a final concentration of 10% foetal bovin serum in the 25 cm^2 flask.
(§3) Cells were rinsed with ice cold PBS and lysed in 150 mM NaCl, 50 mM Tris-HCl pH 8, 1% Triton X100, 4 mM PMSF, 2 mM Aprotinin, 5 mM EDTA, 10 mM NaF, 10 mM NaPPi, 1 mM Na3VO4 for 30 min on ice. Lysates were clarified by centrifugation at 10000 g for 10 min at 4° C. and protein concentrations were determined using the Bradford assay (BIO-RAD). Equal amounts of total cellular protein (20 μg) were resolved in a Bis-tris-HCL buffered (pH 6.4) 4-12% polyacrylamide gel (NuPAGE® Novex® 4-12% Bis-tris gel, INVITROGEN) for 35 min at 200V and electrophoretically transferred on a PVDF membrane (MILLIPORE) for 75 min at 30V. The membrane was blocked for 1 hour at room temperature in T-TBS (132 mM NaCl, 20 mM Tris-HCl pH 7.6, 0.05% Tween 20) supplemented with 5% non-fat dry milk. The membrane was incubated for 1 hour at room temperature in T-TBS-milk with the following primary antibodies: anti-Bcl-XL/S (1:500, S18 SANTA-CRUZ BIOTECHNOLOGY), anti-PARP (1:1000, CELL-SIGNALING TECHNOLOGY), anti-caspase-3 (1:1000, BD BIOSCIENCES PHARMINGEN) anti-cleaved caspase-3 (1:1000, CELL-SIGNALING TECHNOLOGY), anti-alpha-tubulin (1:3000, SIGMA) and anti-Mcl-1 (1:750, S19 SANTA-CRUZ BIOTECHNOLOGY). After three washes with T-TBS, the membrane was incubated for 1 h at room temperature in T-TBS-milk with the adequate peroxidase conjugated secondary antibody (Anti-rabbit IgG, CELL-SIGNALING TECHNOLOGY, and anti-mouse IgG, AMERSHAM). After 3 washes with T-TBS and one with TBS, the immunoreactivity was detected by enhanced chemiluminescence (ECL kit, AMERSHAM).

[2] = tested on: SKOV3 cells; assay: Apoptosis induction in SKOV3 cells (cell and nuclear morphology after DAPI, caspase 3 activation and PARP cleavage by Western blot); format: cell-based, human; settings: 24 h, combination with 20 μg/ml cisplatin
Procedure: as §1, §2, §3
(§4) After treatment, detached cells were collected separately and adherent cells were dissociated by trypsin/EDTA. Adherent and detached cells were then pooled and centrifuged at 1500×g for 5 min before being fixed in 70% ethanol. The cells were then collected on a polylysine-coated glass slide by cytocentrifugation, before a 30 min room temperature incubation in a 1 μg/ml DAPI aqueous solution (BOEHRINGER MANNHEIM). Slides were thereafter extensively washed in distilled water and mounted in Mowiol (CALBIO-CHEM).

[3] = tested on: SKOV3 cells; assay: Cell mortality, viability, growth and cell cycle of SKOV3 cells (morphology, trypan blue exclusion, FACS of DNA content); format: cell-based, human; settings: for cell death (morphology, FACS analysis of the cell cycle): cisplatin 5 or 20 μg/ml, siRNA 150 nM; for cellular and nuclear morphologies and cell cycle versus untransfected SKOV3 cells: alone 150 nM or in combination 75 nM each, 72 h after transfection, FIG. 13
Procedure: as §1, §2, §4
After treatment, detached cells were collected separately. Adherent cells were then harvested by trypsin/EDTA dissociation. Adherent and detached cells were then pooled and washed in PBS before being fixed in 70% ethanol and stored at −20° C. until analysis. Before flow cytometry analysis, the cells were washed in PBS and incubated for 30 min at room temperature in PBS in order to allow the release of low molecular weight (m.w.) DNA, characteristic of apoptotic cells. After a centrifugation at 4000 g for 10 min, the cell pellets were resuspended and stained with propidium iodide (PI) using the DNA Prep Coulter Reagent Kit (BECKMAN-COULTER) at a final concentration of 10^6 cells/ml.
Samples were analyzed using an EPICS XL flow cytometer (BECKMAN COULTER) equipped with an argon laser at 15 mW. PI-stained cells were analyzed using a 488 mn excitation. A 620 nm band pass filter was put on the red fluorescence of PI. Computerized gating was applied on the side and forward scatter to exclude very small debris and on pulse width and integral peak of red fluorescence to eliminate aggregates. All samples were analyzed at a flow rate lower than 100 events per second and with a sheath pressure of 30 psi.

[4] = tested on: intraperitoneal SKOV3 human ovarian adenocarcinoma; assay: Survival of nude mice bearing intraperitoneal SKOV3 tumours; format: in vivo, Swiss/nude mice; settings: siRNA 25 μg/kg, cisplatin 4 μg/kg intraperitoneal, treatment repeated one month later, FIG. 15
Procedure: 4-week-old female Swiss/nude mice were obtained from CHARLES-RIVER LABORATORIES and maintained in a pathogen-free environment. The mice were fed a standard laboratory diet and tap water ad libitum and kept a 23±1° C. with a 12 h light/dark cycle. Animal experiments in the present study were performed in compliance with the guidelines of the Federation of european laboratory animal science associations.
6-8 weeks old mice were implanted intraperitoneally with 2×10^7 ovarian adenocarcinoma SKOV3 cells. As described previously, this model reflects the i.p growth pattern of advanced ovarian cancer (Louis et al, Cancer Gene Therapy, 2006, 13, 367-374).
Twenty one days after tumour implantation, mice were allocated to one of the eight treatment groups (10 mice per group) summarized in Table II: • Group 1 comprised untreated animals. • Group 2 received intraperitoneal injection of 4 μg/kg cisplatin in 1 ml 0.9% NaCl solution. • Group 3 received intraperitoneal injection of 25 μg/kg control siRNA in 1 ml 0.9% NaCl. • Group 4 received intraperitoneal injection of 25 μg/kg Bcl-XL siRNA in 1 ml 0.9% NaCl. • Group 5 received intraperitoneal injection of 25 μg/kg control siRNA in 1 ml 0.9% NaCl and the following day 4 μg/kg of cisplatin in 1 ml 0.9% NaCl solution. • Group 6 received intraperitoneal injection of 4 μg/kg of cisplatin in 1 ml 0.9% NaCl solution and the following day 25 μg/kg control siRNA in 1 ml 0.9% NaCl. • Group 7 received intraperitoneal injection of 25 μg/kg Bcl-XL siRNA in 1 ml 0.9% NaCl and the following day 4 μg/kg of cisplatin in 1 ml 0.9% NaCl solution. • Group 8 received intraperitoneal injection of 4 μg/kg of cisplatin in 1 ml 0.9% NaCl solution and the following day 25 μg/kg Bcl-XL siRNA in 1 ml 0.9% NaCl.
The same treatment was repeated one month later. Mice were killed and autopsied when considered as moribund. Organs and tumours were formalin-fixed and paraffin-embedded for histological examination. At the end of the experiment, all surviving animals were sacrificed, and histological examination was performed in order to detect residual tumour nodes.

[5] = tested on: Mcl-1 mRNA; assay: RT-PCR of Mcl-1 mRNA in SKOV3 cells; format: cell-based, human; settings: 72 h after transfection, FIG. 11A
Procedure: as §2

[6] = tested on: Mcl-1 protein; assay: Western blot of Mcl-1 protein expression in SKOV3 cells; format: cell-based, human; settings: FIG. 11B
Procedure: as §2
Cells were rinsed with ice cold PBS and lysed in 150 mM NaCl, 50 mM Tris-HCl pH 8, 1% Triton X100, 4 mM PMSF, 2 mM Aprotinin, 5 mM EDTA, 10 mM NaF, 10 mM NaPPi, 1 mM Na3VO4 for 30 min on ice. Lysates were clarified by centrifugation at 10000 g for 10 min at 4° C. and protein concentrations were determined using the Bradford assay (BIO-RAD). Equal amounts of total cellular protein (20 μg) were resolved in a Bis-tris-HCL buffered (pH 6.4) 4-12% polyacrylamide gel (NuPAGE® Novex® 4-12% Bis-tris gel, INVITROGEN) for 35 min at 200V and electrophoretically transferred on a PVDF membrane (MILLIPORE) for 75 min at 30V. The membrane was blocked for 1 hour at room temperature in T-TBS (132 mM NaCl, 20 mM Tris-HCl pH 7.6, 0.05% Tween 20) supplemented with 5% non-fat dry milk. […] After 3 washes with T-TBS and one with TBS, the immunoreactivity was detected by enhanced chemiluminescence (ECL kit, AMERSHAM).

N.N.[Cl][Pt][Cl] [cisplatin, cis-diamino-dichloro-platinum II, reference compound]
Bcl-XL protein expression 24 hours after exposure to cisplatin ([1]; 72 hours after siRNA transfection, cisplatin 5 and 20 μg/ml, FIG. 9): no effect
caspase 3 activation and PARP cleavage after 24 h exposure to cisplatin [2]: no sign of apoptosis
cell mortality / cell cycle after several days ([3]; SKOV3 cells, cisplatin 5 and 20 μg/ml): only a transient arrest in cell cycle progression
cell death (morphology, FACS analysis of the cell cycle) ([3]; SKOV3 cells): low level or no cell death
effect on mice survival [4]: does not improve survival

control siRNA: control siRNA without homology to relevant human genes; sense SEQ ID NO: 9, anti-sense SEQ ID NO: 10 (sense GACGUGGGACUGAAGGGGUTT; antisense ACCCCUUCAGUCCCACGUCTT; chemistry not given here) [reference compound]
effect of various concentrations on Bcl-XL protein expression ([1]; 72 h after transfection, FIG. 3): No effect
cell death (morphology, FACS analysis of the cell cycle) ([3]; SKOV3 cells): no changes
cellular and nuclear morphologies and cell cycle versus untransfected SKOV3 cells [3]: no difference
effect on mice survival [4]: does not increase the mice survival

siMcl-1: Mcl-1 specific siRNA; sense 5′-gugccuuuguggcuaaacatt-3′ (SEQ ID NO: 7), anti-sense 5′-uguuuagccacaaaggcacct-3′ (SEQ ID NO: 8) (sense GUGCCUUUGUGGCUAAACATT; antisense UGUUUAGCCACAAAGGCACCT; chemistry not given here)
cytotoxic effect on SKOV3 cells ([3]; 50 nM each siRNA, absence of cisplatin, FIG. 12): no cytotoxic effect
cytotoxic effect of each siRNA ([3]; SKOV3 cells, FIGS. 13 and 14): slight cytoxic effect
cellular and nuclear morphologies and cell cycle versus untransfected SKOV3 cells [3]: no difference
Mcl-1 mRNA expression (RT-PCR) [5]: almost completely
Mcl-1 protein expression after 72 hours [6]: disappeared totally
